# Test results reported in patent US8981112B2, “Inhibitors of β-secretase” (Boehringer Ingelheim International GmbH, priority 2012, dated 2015).
# How the values were obtained:
# [1] = biological target: truncated human beta-secretase, BACE1 (amino acids 1-454) (Homo sapiens (Human), UniProt P56817); assay: BACE1 Assay (Assay 1), fluorescence quench assay; type: biochemical; conditions: read-out: BACE1 IC50 nM (assay 1)
# Protocol: The substrate was dissolved at 1 mg/ml in DMSO.
# The assay was performed in the presence of OptiMEM (supernatant collected over 24 h and cleared from cellular debris by centrifugation) containing the ectodomain of BACE1, 25 μl water containing the desired 2-fold concentration of test compound and 2% DMSO, 1 μM substrate peptide, 20 mM NaOAc, pH 4.4, and 0.04% Triton-X100 in a total assay volume of 50 μl in a 384 well plate. In general, 25 μl of compound dilution were given to the plate followed by the addition of 10 μl of BACE1 containing OptiMEM™ diluted 1:10 in water with 0.2% Triton X-100. The reaction was started with the addition of 15 μl substrate in NaOAc buffer. The reaction was incubated at rt (dark) in an Envision® multilabel reader (Perkin Elmer) and the cleavage of the substrate was recorded as kinetic for 60 min at ex: 485 nm, em: 538 nm. Blank wells containing no enzyme were included on each plate.
# The intensity of fluorescence was regressed against time in order to derive velocities of reaction in all 384 wells. These velocities were used for calculating percent control using an uninhibited control containing 1% DMSO as 100% and blank control performed in the absence of enzyme as 0%. IC50 values were calculated by fitting percent control vs. test compound concentration using Assay Explorer.
# hERG = hERG (Homo sapiens (Human), UniProt Q12809); assay: hERG-Channel Assay (Assay 3), whole-cell patch clamp; type: cell-based; conditions: human, HEK293 cells stably transfected with hERG, pH 7.4; 10 μM, HEK293 cells transfected with hERG
# hERG, sequence (Q12809 whole entry): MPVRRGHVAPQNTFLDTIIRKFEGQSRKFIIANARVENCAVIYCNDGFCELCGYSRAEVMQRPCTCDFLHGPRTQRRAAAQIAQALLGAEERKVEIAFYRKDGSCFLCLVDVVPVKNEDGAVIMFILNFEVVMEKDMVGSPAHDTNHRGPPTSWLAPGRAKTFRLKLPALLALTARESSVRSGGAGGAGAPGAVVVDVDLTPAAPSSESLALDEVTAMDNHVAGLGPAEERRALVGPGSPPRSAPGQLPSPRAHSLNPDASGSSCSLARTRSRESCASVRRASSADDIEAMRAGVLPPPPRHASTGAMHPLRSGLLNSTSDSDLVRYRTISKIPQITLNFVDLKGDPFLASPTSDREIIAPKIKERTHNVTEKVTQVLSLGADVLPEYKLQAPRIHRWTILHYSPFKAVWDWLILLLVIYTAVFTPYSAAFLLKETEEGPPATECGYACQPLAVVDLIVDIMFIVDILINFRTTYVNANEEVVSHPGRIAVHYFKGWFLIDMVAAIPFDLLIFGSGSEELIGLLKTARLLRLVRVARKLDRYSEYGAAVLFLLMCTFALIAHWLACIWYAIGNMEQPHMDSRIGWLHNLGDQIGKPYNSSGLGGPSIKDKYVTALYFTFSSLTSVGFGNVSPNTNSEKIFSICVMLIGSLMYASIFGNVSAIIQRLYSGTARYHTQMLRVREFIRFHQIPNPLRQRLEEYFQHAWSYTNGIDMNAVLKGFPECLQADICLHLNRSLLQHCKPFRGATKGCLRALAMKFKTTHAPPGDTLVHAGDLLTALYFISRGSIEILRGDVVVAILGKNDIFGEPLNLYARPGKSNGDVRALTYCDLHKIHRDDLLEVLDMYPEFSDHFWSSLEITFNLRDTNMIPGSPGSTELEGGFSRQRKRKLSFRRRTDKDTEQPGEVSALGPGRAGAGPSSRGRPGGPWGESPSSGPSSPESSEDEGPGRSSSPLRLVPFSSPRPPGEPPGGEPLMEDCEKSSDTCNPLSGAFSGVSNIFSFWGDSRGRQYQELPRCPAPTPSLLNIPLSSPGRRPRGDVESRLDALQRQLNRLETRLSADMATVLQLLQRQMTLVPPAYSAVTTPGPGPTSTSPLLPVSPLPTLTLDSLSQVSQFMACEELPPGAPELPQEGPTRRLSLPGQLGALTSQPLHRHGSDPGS
# Text: hERG-Channel Assay (Assay 3)
# HEK (human embryonic kidney) 293 cells were stably transfected with hERG cDNA.
# Cells were superfused with a bath solution containing (mM): NaCl (137), KCl (4.0), MgCl2 (1.0), CaCl2 (1.8), Glucose (10), HEPES (10), pH 7.4 with NaOH. Patch pipettes were made from borosilicate glass tubing using a horizontal puller and filled with pipette solution containing (mM): K-aspartate (130), MgCl2 (5.0), EGTA (5.0), K2ATP (4.0), HEPES (10.0), pH 7.2 with KOH. Resistance of the microelectrodes was in the range between 2 and 5 MΩ.
# Membrane currents were recorded using an EPC-10 patch clamp amplifier and PatchMaster software. hERG-mediated membrane currents were recorded at 35° C., using the whole-cell configuration of the patch-clamp technique. Transfected HEK293 cells were clamped at a holding potential of −60 mV and hERG-mediated inactivating tail currents were elicited using a pulse pattern with fixed amplitudes (activation/inactivation: 40 mV for 2000 ms; recovery: −120 mV for 2 ms; ramp to 40 mV in 2 ms; inactivating tail current: 40 mV for 50 ms) repeated at 15 s intervals. During each inter-pulse interval 4 pulses scaled down by a factor of 0.2 were recorded for a P/n leak subtraction procedure. Rs compensation was employed up to a level that safely allowed recording devoid of ringing.
# The different concentrations of the test compound were applied sequentially on each of the different cells investigated. A steady state level of baseline current was measured for at least 6 sweeps prior to the application of the first test compound concentration.
# The test compound was dissolved in DMSO to yield a master stock solution which was diluted further in DMSO to stock solutions needed for the lower concentrations. Final dilutions in extracellular buffer were prepared freshly from these stocks by a 1:1000 dilution step each before starting the experiments.
# Peak current amplitudes were measured 3 ms after the ramp to +40 mV. For baseline and each concentration the peak currents of the three last sweeps before application of the next concentration were averaged. Residual currents (I/I0) were calculated for each cell as the fraction of actual average peak current and average baseline peak current. Results are presented as percent (%) inhibition (1−I/I0)*100% at 10 μM.
# [2] = tested on: brain amyloid peptides Aβ1-x; assay: Rat Brain Aβ Lowering Assay (Assay 5); type: in vivo; conditions: 3 hrs after dosing
# Protocol: Rat Brain Aβ Lowering Assay (Assay 5)
# The animals were sacrificed 3 hrs after dosing, and brains were excised, dissected into cerebellum and left and right cerebra and flash-frozen in liquid nitrogen.
# The cerebrum was homogenized (5 volumes per weight) in 20 mM Tris-HCL, pH 8.5, 0.2% Triton-X100 supplemented with protease inhibitors (complete, Roche Applied Science) at 4° C. using a glass Dounce homogenizer. The homogenate was centrifuged at 120,000×g for 60 min at 4° C., and the supernatant was collected and analyzed for Ab1-x using immunoassay with chemiluminescent detection (Meso-Scale Discovery, Rockville, Md. (MSD)).
# Streptavidin 96-well plates (MSD) were pre-blocked with 5% Blocker A solution (MSD) for 1 hr at rt on an orbital shaker and washed 4 times with phosphate buffered saline (PBS). The wells were pre-coated with 20 ng/well of biotinylated antibody SIG-39155 (Clone M3.2, specific for amino acids 10-15 of the rodent Aβ) for 1 hr at rt and washed 4 times with PBS. For Aβ1-x analysis, 25 μl of either the cleared brain lysates or Aβ1-40 standards (8-500 pg/ml, with 2× increment) were incubated for 1 hr at rt with constant shaking. The wells were washed 4 times with PBS, and 25 μl of the detection antibody (Sulfo-TAG labeled anti-Aβ40 antibody supplied by MSD) was added and incubated for 1 hr at rt. After 4 washes with PBS, 150 μl of the chemiluminescence detection reagent (Read Buffer T, MSD) was added, and the plate was read on an MSD Sector Imager 6000 instrument. The calibration curve was fit into a non-linear four-parameter regression model, and the Aβ1-x concentrations were calculated for each well containing the cleared brain lysates. The percent of Aβ lowering was calculated based on the difference with the average Aβ concentration obtained for the brains from the animals treated with vehicle alone.
# truncated human beta-secretase, BACE1 (amino acids 1-454), sequence (P56817 22-454): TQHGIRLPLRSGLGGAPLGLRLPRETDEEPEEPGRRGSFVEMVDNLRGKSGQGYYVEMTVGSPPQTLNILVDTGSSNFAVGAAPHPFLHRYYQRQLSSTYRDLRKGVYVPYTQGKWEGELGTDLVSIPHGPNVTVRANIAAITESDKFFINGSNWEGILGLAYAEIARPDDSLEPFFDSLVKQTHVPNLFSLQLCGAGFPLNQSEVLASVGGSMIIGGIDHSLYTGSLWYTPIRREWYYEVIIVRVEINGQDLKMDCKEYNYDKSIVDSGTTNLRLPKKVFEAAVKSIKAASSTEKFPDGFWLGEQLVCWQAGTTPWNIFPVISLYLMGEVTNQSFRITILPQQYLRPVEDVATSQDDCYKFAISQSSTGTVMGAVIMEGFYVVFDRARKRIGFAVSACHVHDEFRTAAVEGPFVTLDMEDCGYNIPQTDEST
Compound,IC50 [1],inhibition at 10 µM (hERG),% Aβ Reduction ([2]; single oral dose 25 mg/kg),% Aβ Reduction ([2]; single oral dose 30 mg/kg),% Aβ Reduction ([2]; single oral dose 50 mg/kg),% Aβ Reduction ([2]; single oral dose 12.5 mg/kg)
CO[C@H]1[C@H](C)C[C@@]2(Cc3ccc(C#N)cc3[C@]23N=C(N)N(C[C@@H]2CCO2)C3=O)C[C@@H]1C (stereo in doubt) [Example 18],9 nM,17%,56%,–,–,–
CO[C@H]1CC[C@@]2(Cc3ccc(C#N)cc3[C@]23N=C(N)N(Cc2ccncn2)C3=O)C[C@@H]1C [Example 9],9 nM,16%,37%,–,–,–
CO[C@H]1[C@H](C)C[C@@]2(Cc3ccc(C#N)cc3[C@]23N=C(N)N(CC2COC2)C3=O)C[C@@H]1C [Example 13],9 nM,18%,–,47%,–,–
CO[C@H]1[C@H](C)C[C@@]2(Cc3ccc(C#N)cc3[C@]23N=C(N)N(C[C@@H]2CCCO2)C3=O)C[C@@H]1C [Example 15],11 nM,11%,62%,–,–,–
CO[C@H]1[C@H](C)C[C@@]2(Cc3ccc(C#N)cc3[C@]23N=C(N)N(CC(C)(C)F)C3=O)C[C@@H]1C [Example 17],14 nM,12%,70%,–,–,–
CO[C@H]1[C@H](C)C[C@@]2(Cc3ccc(C#N)cc3[C@]23N=C(N)N(C[C@H]2COCCO2)C3=O)C[C@@H]1C [Example 22],8 nM,9%,–,–,–,45%
CO[C@H]1[C@H](C)C[C@@]2(Cc3ccc(C#N)cc3[C@]23N=C(N)N(CC2(F)CCOCC2)C3=O)C[C@@H]1C [Example 23],12 nM,16%,68%,–,–,–
CC[C@@H]1C[C@@]2(Cc3ccc(C#N)cc3[C@]23N=C(N)N(CC(C)(C)F)C3=O)C[C@H](C)[C@H]1OC [Example 26],9 nM,8%,71%,–,–,–

# Continued by falling IC50 [1], values first:
IC50 [1],Compound,inhibition at 10 µM (hERG),% Aβ Reduction ([2]; single oral dose 25 mg/kg),% Aβ Reduction ([2]; single oral dose 30 mg/kg),% Aβ Reduction ([2]; single oral dose 50 mg/kg),% Aβ Reduction ([2]; single oral dose 12.5 mg/kg)
8 nM,CC[C@@H]1C[C@]2(CC[C@H]1OC)Cc1ccc(C#N)cc1[C@]21N=C(N)N(CC2CCOCC2)C1=O [Example 2],22%,–,42%,–,–
5 nM,CC[C@@H]1C[C@]2(CC[C@H]1OC)Cc1ccc(C#N)cc1[C@]21N=C(N)N(CC2(F)CCOCC2)C1=O [Example 4],0%,75%,–,–,–
5 nM,CO[C@H]1CC[C@@]2(Cc3ccc(C#N)cc3[C@]23N=C(N)N(CC2(C)COC2)C3=O)C[C@@H]1C [Example 8],16%,37%,–,–,–
5 nM,CO[C@H]1[C@H](C)C[C@@]2(Cc3ccc(C#N)cc3[C@]23N=C(N)N(C[C@H]2CCCO2)C3=O)C[C@@H]1C [Example 14],20%,67%,–,–,–
5 nM,CO[C@H]1[C@H](C)C[C@@]2(Cc3ccc(C#N)cc3[C@]23N=C(N)N(C[C@@H]2COCCO2)C3=O)C[C@@H]1C [Example 21],24%,–,–,59%,–
3 nM,CO[C@H]1[C@H](C)C[C@@]2(Cc3ccc(C#N)cc3[C@]23N=C(N)N(C2COC2)C3=O)C[C@@H]1C [Example 12],11%,39%,–,–,–
